Test results: publication PMC3348135, “Identification of New Agonists and Antagonists of the Insect Odorant Receptor Co-Receptor Subunit” (PLoS ONE, 2012)

Tests used:
Dmel\Orco = target: T1, Dmel\Orco (Drosophila melanogaster, UniProt Q9VNB5); test: Inhibition of OLC12 activation of Dmel\Orco in Xenopus oocytes; format: cell-based; settings: for IC50: activated by 30 µM OLC12 (EC39)
T1 construct: expressed in transfected cells; host or cells: Xenopus laevis oocytes (cRNA injection, pGEMHE)
T1 sequence (Q9VNB5 1-486): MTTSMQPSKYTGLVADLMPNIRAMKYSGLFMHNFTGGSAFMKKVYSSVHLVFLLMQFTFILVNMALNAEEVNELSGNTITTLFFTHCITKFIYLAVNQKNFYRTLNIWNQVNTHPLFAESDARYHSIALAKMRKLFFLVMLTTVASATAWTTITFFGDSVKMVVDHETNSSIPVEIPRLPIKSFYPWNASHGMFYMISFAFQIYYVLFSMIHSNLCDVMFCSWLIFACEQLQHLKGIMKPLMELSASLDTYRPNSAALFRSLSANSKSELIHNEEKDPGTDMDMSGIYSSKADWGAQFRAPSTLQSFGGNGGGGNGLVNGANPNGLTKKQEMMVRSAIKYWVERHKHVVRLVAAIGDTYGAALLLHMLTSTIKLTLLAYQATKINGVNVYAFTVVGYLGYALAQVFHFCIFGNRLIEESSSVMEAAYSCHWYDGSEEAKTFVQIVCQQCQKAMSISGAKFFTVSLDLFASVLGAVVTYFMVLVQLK
Procedure: (§1) Oocytes were surgically removed from mature Xenopus laevis frogs. Follicle cells were removed by treatment with Collagenase B (Boehringer Mannhem) for 2 hours at room temperature. Capped cRNA encoding each DmOR subunit was generated using mMessage mMachine kits (Ambion). For heteromeric ORs, 25 ng of cRNA encoding each OR subunit was injected into Stage V-VI Xenopus oocytes. For expression of Orco alone, 50 ng of cRNA was injected. Oocytes were incubated at 18°C in Barth’s saline (in mM: 88 NaCl, 1 KCl, 2.4 NaHCO3, 0.3 CaNO3, 0.41 CaCl2, 0.82 MgSO4, 15 HEPES, pH 7.6, and 150 µg/ml ceftazidime) for 2–5 days prior to electrophysiological recording.
(§2) Odorant and Orco ligand induced currents were recorded under two-electrode voltage clamp in Xenopus laevis oocytes expressing ORs, using an automated parallel electrophysiology system (OpusExpress 6000A; Molecular Devices). Oocytes were perfused with ND96 (in mM: 96 NaCl, 2 KCl, 1 CaCl2, 1 MgCl2, 5 HEPES, pH 7.5). Odorant stock solutions (0.5 or 1 M) and Orco ligand stock solutions (100 mM) were prepared in DMSO and diluted in ND96. Unless otherwise noted, applications were for 60 sec at a flow rate of 1.0 ml/min, with extensive washing in ND96 (9 or 20 min at 4.6 ml/min) between applications. Micropipettes were filled with 3 M KCl and had resistances of 0.2−2.0 MΩ. The holding potential was −70 mV. Current responses, filtered (4-pole, Bessel, low pass) at 20 Hz (−3 db) and sampled at 100 Hz, were captured and stored using OpusXpress 1.1 software (Molecular Devices).
In inhibition assays, oocytes were exposed to 60 sec applications of OLC12 with 9 min washes between applications (Fig. 3 and 4) or 60 sec applications of odorant with 20 min washes between applications (Fig. 5). Oocytes were then exposed to a 90 sec application of antagonist candidate, immediately followed by a 60 sec co-application of antagonist candidate and OLC12 or odorant. Oocytes were then exposed to a final 60 sec application of OLC12 or odorant. The current response in the presence of antagonist candidate was compared to the preceding response(s) to OLC12 (or odorant) alone.
Initial analysis of electrophysiological data was done using Clampfit 9.1 software (Molecular Devices). Curve fitting and statistical analyses were done using Prism 5 (Graphpad). Concentration-response data were fit to the equation: I = Imax/(1+(EC50/X)^n) where I represents the current response at a given concentration of odorant, X; Imax is the maximal response; EC50 is the concentration of agonist yielding a half maximal response; n is the apparent Hill coefficient. Concentration-inhibition data were fit to the equation: I = Imax/(1+(X/IC50)^n) where I represents the current response at a given concentration of inhibitor, X; Imax is the maximal response in the absence of inhibitor; IC50 is the concentration of inhibitor present that still allows a half maximal response from odorant; n is the apparent Hill coefficient. Statistical significance was assessed using a two-tailed unpaired t test, an F test, or a one-way analysis of variance followed by the Bonferroni’s post-test, as appropriate.

Onub\Orco + Onub\Or1 = test: Agonist activation of Onub\Orco + Onub\Or1 in Xenopus oocytes, two-electrode voltage clamp; format: cell-based, Ostrinia nubilalis; settings: 100 µM compound; mean ± SEM, n=3-8
Dmel\Orco + Dmel\Or35a = target: T2, Dmel\Orco + Dmel\Or35a (Drosophila melanogaster, UniProt Q9VNB5); test: Inhibition of odorant (hexanol) activation of Dmel\Orco + Dmel\Or35a in Xenopus oocytes; format: cell-based; settings: 3 µM hexanol; OLC2 100 µM, OLC15 50 µM, OLC20 200 µM
T2 construct: expressed in transfected cells; host or cells: Xenopus laevis oocytes (cRNA injection, pGEMHE)
T2 sequence (Q9VNB5 1-486): T1 sequence (Q9VNB5 1-486)
T2 sequence (Q9V3Q2 1-409 partner): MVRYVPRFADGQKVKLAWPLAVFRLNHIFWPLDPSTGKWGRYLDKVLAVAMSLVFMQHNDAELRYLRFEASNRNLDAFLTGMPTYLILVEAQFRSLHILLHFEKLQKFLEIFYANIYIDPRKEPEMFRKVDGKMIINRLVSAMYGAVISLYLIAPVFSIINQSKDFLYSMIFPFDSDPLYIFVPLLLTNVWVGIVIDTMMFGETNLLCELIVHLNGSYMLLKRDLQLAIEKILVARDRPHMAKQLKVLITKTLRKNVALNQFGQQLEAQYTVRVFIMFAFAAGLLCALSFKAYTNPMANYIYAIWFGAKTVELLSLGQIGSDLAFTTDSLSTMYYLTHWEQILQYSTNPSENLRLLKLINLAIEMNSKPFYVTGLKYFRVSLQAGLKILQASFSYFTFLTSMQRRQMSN
Procedure: as §1, §2
In inhibition assays, oocytes were exposed to 60 sec applications of OLC12 with 9 min washes between applications (Fig. 3 and 4) or 60 sec applications of odorant with 20 min washes between applications (Fig. 5). […]
Initial analysis of electrophysiological data was done using Clampfit 9.1 software (Molecular Devices). […] Statistical significance was assessed using a two-tailed unpaired t test, an F test, or a one-way analysis of variance followed by the Bonferroni’s post-test, as appropriate.

Agam\Orco + Agam\Or65 = target: T3, Agam\Orco + Agam\Or65 (Anopheles gambiae, UniProt Q7QCC7); test: Inhibition of odorant (eugenol) activation of Agam\Orco + Agam\Or65 in Xenopus oocytes; format: cell-based, A. gambiae; settings: 100 nM eugenol; OLC compound 100 µM
T3 construct: expressed in transfected cells; host or cells: Xenopus laevis oocytes (cRNA injection; vectors pSP64T-Oligo and pT7TS)
T3 sequence (Q7QCC7 1-478): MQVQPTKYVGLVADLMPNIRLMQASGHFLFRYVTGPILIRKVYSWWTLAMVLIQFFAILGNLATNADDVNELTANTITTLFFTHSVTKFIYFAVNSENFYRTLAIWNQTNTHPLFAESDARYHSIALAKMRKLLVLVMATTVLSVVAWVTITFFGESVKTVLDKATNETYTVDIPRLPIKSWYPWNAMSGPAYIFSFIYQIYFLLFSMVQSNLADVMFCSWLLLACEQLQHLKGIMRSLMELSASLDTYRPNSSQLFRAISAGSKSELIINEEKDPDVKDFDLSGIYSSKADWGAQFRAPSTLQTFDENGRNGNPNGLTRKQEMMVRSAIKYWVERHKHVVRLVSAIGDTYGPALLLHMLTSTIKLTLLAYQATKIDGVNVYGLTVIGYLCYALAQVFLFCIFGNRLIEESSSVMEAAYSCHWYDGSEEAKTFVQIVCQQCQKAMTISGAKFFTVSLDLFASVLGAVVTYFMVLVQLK

CCc1ccc(NC(=O)CSc2nnc(-c3ccccn3)n2CC)cc1 [OLC2]
Inhibition of activation of Dmel\Orco by 30 µM OLC12 on co-application (Dmel\Orco; 100 µM compound co-applied with 30 µM OLC12): inhibits | IC50 (Dmel\Orco): 23 ± 3 µM | Response amplitude as percentage of response to 100 µM OLC3, Onub\Orco + Onub\Or1 (Onub\Orco + Onub\Or1): 9 ± 2% | Inhibition of the hexanol response of Dmel\Orco+Dmel\Or35a (Dmel\Orco + Dmel\Or35a): did not inhibit | Inhibition of activation of Agam\Orco+Agam\Or65 by eugenol (Agam\Orco + Agam\Or65): inhibited

CCCCc1ccc(NC(=O)CSc2nnc(-c3ccccn3)n2CC)cc1 [OLC15]
IC50 (Dmel\Orco): 15 ± 2 µM | Inhibition of the hexanol response of Dmel\Orco+Dmel\Or35a (Dmel\Orco + Dmel\Or35a): substantial inhibition | Inhibition of activation of Agam\Orco+Agam\Or65 by eugenol (Agam\Orco + Agam\Or65): inhibited
